We go through 16 compounds from ChEMBL document CHEMBL5291721, “A preclinical secondary pharmacology resource illuminates target-adverse drug reaction associations of marketed drugs” (Nat Commun, 2023).

Assay [1] has as its target T1, Muscarinic acetylcholine receptor M2 (Homo sapiens, UniProt P08172).
T1 sequence (P08172 whole entry): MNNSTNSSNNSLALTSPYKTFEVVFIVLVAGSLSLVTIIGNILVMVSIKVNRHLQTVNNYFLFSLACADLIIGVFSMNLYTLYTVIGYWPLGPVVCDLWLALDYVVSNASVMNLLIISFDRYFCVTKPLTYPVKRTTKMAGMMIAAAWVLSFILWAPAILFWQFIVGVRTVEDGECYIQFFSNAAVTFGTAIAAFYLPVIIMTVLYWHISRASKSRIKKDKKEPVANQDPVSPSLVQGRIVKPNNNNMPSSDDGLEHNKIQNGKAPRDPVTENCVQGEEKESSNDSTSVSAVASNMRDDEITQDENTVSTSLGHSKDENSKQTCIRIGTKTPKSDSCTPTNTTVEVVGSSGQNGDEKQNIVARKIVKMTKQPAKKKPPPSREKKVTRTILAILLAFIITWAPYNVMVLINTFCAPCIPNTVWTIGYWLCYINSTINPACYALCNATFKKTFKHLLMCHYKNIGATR
Type of assay: functional, cell-based.

In assay [2] the target is T2, Gamma-aminobutyric acid receptor subunit alpha-1/alpha-2/beta-2/gamma-2 (Homo sapiens, UniProt P14867+P18507+P47869+P47870). The assay is classed as functional, cell-based.
Assay [3] addresses 5-hydroxytryptamine receptor 2A (Homo sapiens, UniProt P28223). Type of assay: functional, cell-based.
In a further assay the target is T3, Glucocorticoid receptor (Homo sapiens, UniProt P04150).
T3 sequence (P04150 whole entry): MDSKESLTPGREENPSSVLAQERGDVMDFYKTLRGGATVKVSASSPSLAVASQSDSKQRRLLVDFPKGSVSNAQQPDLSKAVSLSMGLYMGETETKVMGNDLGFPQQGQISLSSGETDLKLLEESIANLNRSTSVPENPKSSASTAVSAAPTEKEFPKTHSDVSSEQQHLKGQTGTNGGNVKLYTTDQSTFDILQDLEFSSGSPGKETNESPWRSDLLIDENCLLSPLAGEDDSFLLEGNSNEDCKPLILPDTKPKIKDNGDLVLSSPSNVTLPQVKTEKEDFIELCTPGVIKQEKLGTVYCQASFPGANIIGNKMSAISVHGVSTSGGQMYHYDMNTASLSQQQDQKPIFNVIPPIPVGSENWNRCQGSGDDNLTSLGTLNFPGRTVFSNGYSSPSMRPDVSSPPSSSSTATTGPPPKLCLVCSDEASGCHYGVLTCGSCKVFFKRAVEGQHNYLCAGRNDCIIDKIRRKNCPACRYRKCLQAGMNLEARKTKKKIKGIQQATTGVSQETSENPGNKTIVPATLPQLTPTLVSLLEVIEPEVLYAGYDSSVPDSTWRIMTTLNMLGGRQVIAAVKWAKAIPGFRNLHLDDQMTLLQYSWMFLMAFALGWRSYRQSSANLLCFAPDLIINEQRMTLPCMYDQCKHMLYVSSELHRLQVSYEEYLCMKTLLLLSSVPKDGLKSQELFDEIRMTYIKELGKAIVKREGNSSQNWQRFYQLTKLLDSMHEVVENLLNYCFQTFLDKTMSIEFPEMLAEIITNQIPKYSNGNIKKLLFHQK
Type of assay: functional.

Assay [4] deals with T2, Gamma-aminobutyric acid receptor subunit alpha-1/alpha-2/beta-2/gamma-2. Type of assay: functional, cell-based. This is another data set of the same source.
For the next assay, the target named is T4, Estrogen receptor (Homo sapiens, UniProt P03372).
T4 sequence (P03372 whole entry): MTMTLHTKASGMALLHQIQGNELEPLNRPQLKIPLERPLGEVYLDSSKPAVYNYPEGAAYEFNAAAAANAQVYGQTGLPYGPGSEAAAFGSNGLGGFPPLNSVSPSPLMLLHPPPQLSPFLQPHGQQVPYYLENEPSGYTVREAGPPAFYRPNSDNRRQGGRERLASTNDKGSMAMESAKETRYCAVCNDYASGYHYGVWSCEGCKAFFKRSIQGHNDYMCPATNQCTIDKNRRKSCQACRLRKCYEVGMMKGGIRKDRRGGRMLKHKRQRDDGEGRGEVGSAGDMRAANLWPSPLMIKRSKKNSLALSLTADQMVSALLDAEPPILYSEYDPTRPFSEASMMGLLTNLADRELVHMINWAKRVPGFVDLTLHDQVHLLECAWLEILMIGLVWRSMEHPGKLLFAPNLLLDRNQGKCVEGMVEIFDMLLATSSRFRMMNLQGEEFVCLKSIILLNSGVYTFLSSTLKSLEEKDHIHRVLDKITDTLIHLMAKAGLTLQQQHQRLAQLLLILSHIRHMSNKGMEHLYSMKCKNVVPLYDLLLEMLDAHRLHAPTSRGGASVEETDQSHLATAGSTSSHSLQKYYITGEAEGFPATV
The assay is classed as functional.

Assay [5] concerns the target Receptor tyrosine-protein kinase erbB-2 (Homo sapiens, UniProt P04626). The assay is classed as functional.
Assay [6] addresses Epidermal growth factor receptor (Homo sapiens, UniProt P00533). Type of assay: functional.
The target of assay [7] is Sodium channel protein type 5 subunit alpha (Homo sapiens, UniProt Q14524). The assay is classed as functional, cell-based.
Assay [8] deals with T2, Gamma-aminobutyric acid receptor subunit alpha-1/alpha-2/beta-2/gamma-2. Type of assay: protein-complex assay.
The target of assay [9] is T5, Alpha-1A adrenergic receptor (Homo sapiens, UniProt P35348).
T5 sequence (P35348 whole entry): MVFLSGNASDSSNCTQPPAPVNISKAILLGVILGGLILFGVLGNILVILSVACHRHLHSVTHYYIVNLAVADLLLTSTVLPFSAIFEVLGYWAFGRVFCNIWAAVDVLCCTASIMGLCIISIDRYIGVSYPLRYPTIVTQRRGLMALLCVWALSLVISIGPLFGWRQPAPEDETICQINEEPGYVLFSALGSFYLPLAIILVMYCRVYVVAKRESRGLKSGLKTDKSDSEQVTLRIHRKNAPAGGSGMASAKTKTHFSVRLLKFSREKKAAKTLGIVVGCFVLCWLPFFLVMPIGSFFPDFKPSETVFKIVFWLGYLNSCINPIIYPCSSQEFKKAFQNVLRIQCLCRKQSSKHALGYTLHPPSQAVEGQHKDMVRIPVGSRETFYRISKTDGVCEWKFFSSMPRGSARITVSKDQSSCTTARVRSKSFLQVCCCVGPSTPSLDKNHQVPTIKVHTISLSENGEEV

The target of another assay is Mu-type opioid receptor (Homo sapiens, UniProt P35372). In words: biochemical. Type of assay: functional.

Some results are limits rather than exact numbers.
Note: assay procedure not described here.

Sequence of Receptor tyrosine-protein kinase erbB-2 (P04626 whole entry): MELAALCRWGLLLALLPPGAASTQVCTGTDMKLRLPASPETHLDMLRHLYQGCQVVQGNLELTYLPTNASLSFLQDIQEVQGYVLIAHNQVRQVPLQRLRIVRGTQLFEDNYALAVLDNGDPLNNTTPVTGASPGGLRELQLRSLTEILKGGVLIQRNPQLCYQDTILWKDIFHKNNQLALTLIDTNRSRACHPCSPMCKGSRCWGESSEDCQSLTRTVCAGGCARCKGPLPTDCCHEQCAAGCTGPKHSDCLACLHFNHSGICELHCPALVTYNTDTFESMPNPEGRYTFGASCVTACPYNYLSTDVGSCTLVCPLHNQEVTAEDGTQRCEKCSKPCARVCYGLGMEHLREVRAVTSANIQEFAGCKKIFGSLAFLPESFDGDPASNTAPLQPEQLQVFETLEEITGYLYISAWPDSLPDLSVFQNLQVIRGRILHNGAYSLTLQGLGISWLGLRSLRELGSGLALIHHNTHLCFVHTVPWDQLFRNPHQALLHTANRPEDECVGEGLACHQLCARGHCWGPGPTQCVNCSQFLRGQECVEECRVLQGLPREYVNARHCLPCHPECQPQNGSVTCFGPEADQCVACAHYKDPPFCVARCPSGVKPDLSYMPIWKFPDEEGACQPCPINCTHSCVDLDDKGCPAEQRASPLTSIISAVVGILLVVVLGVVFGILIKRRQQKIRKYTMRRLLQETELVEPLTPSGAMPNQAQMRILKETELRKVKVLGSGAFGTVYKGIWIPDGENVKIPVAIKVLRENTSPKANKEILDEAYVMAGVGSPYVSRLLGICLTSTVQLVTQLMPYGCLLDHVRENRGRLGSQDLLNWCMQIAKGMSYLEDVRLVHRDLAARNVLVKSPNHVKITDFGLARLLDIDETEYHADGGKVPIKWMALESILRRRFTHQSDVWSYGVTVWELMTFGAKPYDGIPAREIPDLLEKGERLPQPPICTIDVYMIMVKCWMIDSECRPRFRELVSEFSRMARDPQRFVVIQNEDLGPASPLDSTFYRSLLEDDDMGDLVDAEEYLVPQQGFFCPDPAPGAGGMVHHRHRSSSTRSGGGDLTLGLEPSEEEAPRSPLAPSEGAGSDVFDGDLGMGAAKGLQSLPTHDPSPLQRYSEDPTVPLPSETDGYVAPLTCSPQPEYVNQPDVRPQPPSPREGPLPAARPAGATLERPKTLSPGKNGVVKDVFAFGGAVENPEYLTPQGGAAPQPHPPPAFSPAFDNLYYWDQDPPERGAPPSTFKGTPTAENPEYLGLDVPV
Sequence of Sodium channel protein type 5 subunit alpha (Q14524 whole entry): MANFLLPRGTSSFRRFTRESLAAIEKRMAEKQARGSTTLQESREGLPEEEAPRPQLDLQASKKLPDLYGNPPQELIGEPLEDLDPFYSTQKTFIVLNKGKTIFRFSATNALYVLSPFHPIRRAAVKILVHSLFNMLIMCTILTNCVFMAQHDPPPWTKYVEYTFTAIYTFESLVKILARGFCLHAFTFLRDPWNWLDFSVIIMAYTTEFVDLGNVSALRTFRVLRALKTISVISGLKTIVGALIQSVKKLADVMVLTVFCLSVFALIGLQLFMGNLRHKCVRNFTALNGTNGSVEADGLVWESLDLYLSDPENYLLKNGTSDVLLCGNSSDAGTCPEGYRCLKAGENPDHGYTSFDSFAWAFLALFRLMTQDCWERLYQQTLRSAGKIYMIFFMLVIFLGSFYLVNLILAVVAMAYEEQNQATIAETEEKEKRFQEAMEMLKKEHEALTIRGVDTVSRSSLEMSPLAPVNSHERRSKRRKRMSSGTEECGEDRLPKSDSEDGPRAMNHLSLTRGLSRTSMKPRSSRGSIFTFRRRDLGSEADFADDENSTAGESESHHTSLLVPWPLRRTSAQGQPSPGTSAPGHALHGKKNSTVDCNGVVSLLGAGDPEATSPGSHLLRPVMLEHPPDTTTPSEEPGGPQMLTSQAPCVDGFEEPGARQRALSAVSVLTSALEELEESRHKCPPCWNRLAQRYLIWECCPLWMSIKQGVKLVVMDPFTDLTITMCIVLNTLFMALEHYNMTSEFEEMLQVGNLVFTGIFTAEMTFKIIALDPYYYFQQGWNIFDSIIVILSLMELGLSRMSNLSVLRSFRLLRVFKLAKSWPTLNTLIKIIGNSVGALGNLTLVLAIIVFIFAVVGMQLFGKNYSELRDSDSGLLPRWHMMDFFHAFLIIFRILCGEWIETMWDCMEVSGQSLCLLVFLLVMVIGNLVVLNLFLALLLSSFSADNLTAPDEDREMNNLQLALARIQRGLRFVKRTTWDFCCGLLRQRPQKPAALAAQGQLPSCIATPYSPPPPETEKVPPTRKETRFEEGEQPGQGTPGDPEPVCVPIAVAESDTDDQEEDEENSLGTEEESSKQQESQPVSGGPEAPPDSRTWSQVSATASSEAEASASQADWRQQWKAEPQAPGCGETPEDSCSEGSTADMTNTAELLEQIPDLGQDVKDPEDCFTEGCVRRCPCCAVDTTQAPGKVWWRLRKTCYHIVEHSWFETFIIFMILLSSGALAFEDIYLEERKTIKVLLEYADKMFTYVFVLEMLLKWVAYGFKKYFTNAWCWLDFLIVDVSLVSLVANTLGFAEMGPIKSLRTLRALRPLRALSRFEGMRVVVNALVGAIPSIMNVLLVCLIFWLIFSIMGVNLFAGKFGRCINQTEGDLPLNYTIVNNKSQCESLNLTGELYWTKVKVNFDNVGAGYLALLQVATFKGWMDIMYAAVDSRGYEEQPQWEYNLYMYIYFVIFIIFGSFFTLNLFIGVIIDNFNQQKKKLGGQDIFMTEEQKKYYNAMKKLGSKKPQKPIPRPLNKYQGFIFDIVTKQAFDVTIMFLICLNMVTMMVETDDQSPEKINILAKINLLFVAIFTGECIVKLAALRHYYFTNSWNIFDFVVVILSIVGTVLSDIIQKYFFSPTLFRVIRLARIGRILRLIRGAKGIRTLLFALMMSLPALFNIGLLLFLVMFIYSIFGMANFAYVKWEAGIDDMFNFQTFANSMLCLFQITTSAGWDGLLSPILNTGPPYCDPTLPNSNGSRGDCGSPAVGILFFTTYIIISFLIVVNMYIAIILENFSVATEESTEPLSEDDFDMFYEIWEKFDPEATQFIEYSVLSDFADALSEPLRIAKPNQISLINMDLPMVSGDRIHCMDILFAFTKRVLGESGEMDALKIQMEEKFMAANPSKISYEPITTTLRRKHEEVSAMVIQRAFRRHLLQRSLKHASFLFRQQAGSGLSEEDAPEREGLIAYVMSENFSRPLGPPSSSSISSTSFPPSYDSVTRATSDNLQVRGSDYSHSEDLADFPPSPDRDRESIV
Sequence of Mu-type opioid receptor (P35372 whole entry): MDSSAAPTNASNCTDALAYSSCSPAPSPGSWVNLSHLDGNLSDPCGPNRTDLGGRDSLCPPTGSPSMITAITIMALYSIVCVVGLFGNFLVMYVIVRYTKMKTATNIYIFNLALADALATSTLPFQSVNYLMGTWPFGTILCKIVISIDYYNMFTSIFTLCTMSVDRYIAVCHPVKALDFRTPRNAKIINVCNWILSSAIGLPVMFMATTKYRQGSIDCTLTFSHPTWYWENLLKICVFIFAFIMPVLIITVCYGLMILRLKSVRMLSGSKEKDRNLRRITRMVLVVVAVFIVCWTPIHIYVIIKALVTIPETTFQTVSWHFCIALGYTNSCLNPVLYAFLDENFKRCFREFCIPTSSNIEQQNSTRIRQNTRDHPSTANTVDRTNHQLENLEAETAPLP
Sequence of Epidermal growth factor receptor (P00533 whole entry): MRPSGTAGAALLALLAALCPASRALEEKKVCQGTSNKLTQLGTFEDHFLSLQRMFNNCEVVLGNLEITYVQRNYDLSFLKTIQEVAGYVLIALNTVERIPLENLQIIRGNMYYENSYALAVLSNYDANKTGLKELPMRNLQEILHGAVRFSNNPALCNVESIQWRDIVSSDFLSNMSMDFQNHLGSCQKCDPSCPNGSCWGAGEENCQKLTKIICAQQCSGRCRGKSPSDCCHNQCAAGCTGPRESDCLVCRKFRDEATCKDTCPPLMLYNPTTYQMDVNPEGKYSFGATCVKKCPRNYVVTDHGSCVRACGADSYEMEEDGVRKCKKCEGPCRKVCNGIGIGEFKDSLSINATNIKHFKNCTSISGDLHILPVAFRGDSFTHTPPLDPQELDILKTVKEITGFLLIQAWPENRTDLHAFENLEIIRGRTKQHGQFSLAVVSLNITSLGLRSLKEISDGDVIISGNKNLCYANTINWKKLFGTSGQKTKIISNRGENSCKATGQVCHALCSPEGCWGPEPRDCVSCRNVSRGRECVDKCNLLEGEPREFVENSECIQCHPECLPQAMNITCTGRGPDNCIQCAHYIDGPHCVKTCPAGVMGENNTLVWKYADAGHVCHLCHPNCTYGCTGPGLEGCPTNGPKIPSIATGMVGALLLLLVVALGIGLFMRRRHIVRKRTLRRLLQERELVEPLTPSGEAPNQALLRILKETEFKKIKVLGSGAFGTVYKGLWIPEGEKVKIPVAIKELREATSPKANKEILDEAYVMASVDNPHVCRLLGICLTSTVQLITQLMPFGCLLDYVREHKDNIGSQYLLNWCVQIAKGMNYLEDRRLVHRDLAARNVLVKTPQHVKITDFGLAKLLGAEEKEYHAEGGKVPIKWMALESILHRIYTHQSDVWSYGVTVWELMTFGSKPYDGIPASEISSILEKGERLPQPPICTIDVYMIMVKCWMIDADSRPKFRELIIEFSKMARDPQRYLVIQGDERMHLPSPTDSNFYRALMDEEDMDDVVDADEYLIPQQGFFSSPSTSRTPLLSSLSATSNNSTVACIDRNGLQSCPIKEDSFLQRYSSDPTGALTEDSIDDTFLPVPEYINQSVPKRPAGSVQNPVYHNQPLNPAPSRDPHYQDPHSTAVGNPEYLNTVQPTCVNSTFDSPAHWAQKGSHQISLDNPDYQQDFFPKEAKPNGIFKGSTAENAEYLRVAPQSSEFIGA

`CCOCC(O)COc1ccc(NC(=O)CC[S+](C)C)cc1` (stereo not given): the AC50 (in assay [1]; in assay [2]; in [3]; at Glucocorticoid receptor; in assay [4]; on Estrogen receptor) was over 30 µM in each case.

Consider `CCC[C@@]1(CCc2ccccc2)CC(O)=C([C@H](CC)c2cccc(NS(=O)(=O)c3ccc(C(F)(F)F)cn3)c2)C(=O)O1`, for which the AC50 in assay [1] was 6.3 µM; in [2], over 30 µM; in [5], over 30 µM; in [3] it was 11 µM; in assay [6], over 30 µM; on Glucocorticoid receptor it was over 30 µM. In addition, the AC50 is over 50 µM in [7] and 22 µM in [4].

For `CN1CC2c3ccccc3Oc3ccc(Cl)cc3C2C1` (stereo not given) [ASENAPINE], the AC50 in assay [1] was over 30 µM; in assay [2], over 30 µM; in assay [5], over 30 µM; in assay [3], 0.0002 µM; in assay [6], over 30 µM; on Glucocorticoid receptor, over 30 µM. The AC50 was 2 µM in assay [7], 6.5 µM in [4] and over 30 µM at Estrogen receptor.

In the case of `CC(=O)Oc1ccccc1C(=O)O` [ASPIRIN], the concentration at half-maximal activity (AC50) in assay [1] is over 30 µM; in assay [7], over 30 µM; in [8], over 30 µM; in [9], over 10 µM.

Regarding `Cn1cnc2c(F)c(Nc3ccc(Br)cc3F)c(C(=O)NOCCO)cc21` [BINIMETINIB], the AC50 (in assay [1]; in assay [2]; in assay [5]; in assay [3]; in [6]; on Glucocorticoid receptor) was over 30 µM each time. In addition, the concentration at half-maximal activity (AC50) (in [7]; in assay [4]; on Estrogen receptor) was over 30 µM each time.

`C[C@H](CCC(=O)O)[C@H]1CC[C@H]2[C@@H]3[C@H](O)C[C@@H]4C[C@H](O)CC[C@]4(C)[C@H]3CC[C@]12C` [CHENODIOL]: the AC50 in assay [1] is 27 µM; in [2] it was over 30 µM; in [5], over 30 µM; in assay [3] it was over 30 µM; in [6] it was over 30 µM; in assay [7] it was over 50 µM. Further, the AC50 (in [4]; on Estrogen receptor) was over 30 µM in each case.

`O=C(O)[C@H]1/C(=C/CO)O[C@@H]2CC(=O)N21` [CLAVULANIC ACID]: the AC50 (in [1]; in [2]; in assay [3]; at Glucocorticoid receptor; in [4]; on Estrogen receptor) was over 30 µM each time.

In the case of `CC(C)/N=c1\cc2n(-c3ccc(Cl)cc3)c3ccccc3nc-2cc1Nc1ccc(Cl)cc1` [CLOFAZIMINE], the concentration at half-maximal activity (AC50) (on Mu-type opioid receptor; in assay [1]; in assay [3]; at Glucocorticoid receptor) was over 30 µM in each case.

Consider `NCC1(CC(=O)O)CCCCC1` [GABAPENTIN], for which the AC50 (in assay [1]; in [2]; in assay [5]; in assay [6]; on Glucocorticoid receptor; in assay [7]) was over 30 µM each time. In addition, the AC50 in assay [4] was over 30 µM; in assay [8] it was over 30 µM; in [9] it was over 10 µM.

In the case of `C[C@@H](O)[C@H]1C(=O)N2C(C(=O)O)=C(SCCN=CN)C[C@H]12` [IMIPENEM ANHYDROUS], the AC50 in assay [1] was over 300 µM; in assay [2], over 2000 µM; in [5], over 300 µM; in [3] it was over 300 µM; in assay [6], over 300 µM; on Glucocorticoid receptor, over 300 µM. For the same compound, the AC50 in assay [4] was over 2400 µM; on Estrogen receptor it was over 300 µM.

With `CC(=O)SCC(Cc1ccccc1)C(=O)NCC(=O)OCc1ccccc1` (stereo not given) [RACECADOTRIL], the AC50 at Mu-type opioid receptor is over 30 µM; in assay [1] it was over 30 µM; in [3] it was over 30 µM; at Glucocorticoid receptor, over 30 µM; in assay [9], over 10 µM.

With `COc1cc2c(cc1OC)C1CC(=O)C(CC(C)C)CN1CC2` (stereo not given) [TETRABENAZINE], the AC50 in assay [1], in assay [2], in assay [5], in assay [3], in [6] and in [4] was over 30 µM each time. Further, the AC50 at Estrogen receptor was over 30 µM.

`CC(C)(CO)c1cc2cc(NC(=O)C3(c4ccc5c(c4)OC(F)(F)O5)CC3)c(F)cc2n1C[C@@H](O)CO` [TEZACAFTOR]: the AC50 was over 30 µM in assay [1]; over 30 µM in [2]; 16 µM in [3]; over 30 µM at Glucocorticoid receptor; 42 µM in [7]; over 30 µM at Estrogen receptor.

For `Cc1c(C)c2c(c(C)c1O)CCC(C)(COc1ccc(CC3SC(=O)NC3=O)cc1)O2` (stereo not given) [TROGLITAZONE], the AC50 at Mu-type opioid receptor is over 30 µM; in assay [2], over 30 µM; in assay [4] it was 6.8 µM; at Estrogen receptor, over 30 µM; in assay [8], over 3 µM; in assay [9], 12.5 µM.

Consider `c1cnc2cc3c(cc2n1)[C@@H]1CNC[C@H]3C1` [VARENICLINE], for which the AC50 in assay [1], in [2], in [5], in [3], in [6] and in assay [4] was over 30 µM in each case. Further, the AC50 at Estrogen receptor was over 30 µM.

Take `Nc1c2c(nc3ccccc13)CCCC2O` (stereo not given) [VELNACRINE]: the half-maximal activity concentration (AC50) (in assay [1]; in assay [2]; in assay [5]; in assay [3]; in [6]; on Glucocorticoid receptor) was over 30 µM each time. For the same compound, the AC50 (in [4]; at Estrogen receptor) was over 30 µM each time.

Broadly, the AC50 is the concentration at which the activity in the assay is half-maximal. The low end stands for greater potency, the high end for weaker potency.
